Results from patent US20140370320A1, “WOOD PRESERVATIVE” (Arch Wood Protection Pty Ltd, priority 2011, published 2014).

What was measured:
[1] = test system: decay of Radiata pine sapwood panels (field exposure, Hawaii); experiment: Hawaiian field trial, flat panel test on treated radiata pine sapwood panels
Experimental: Radiata pine sapwood panels (200×70×25 mm) were treated with various preservatives and exposed on racks at 45°, using a method generally described as the “flat panel test” (Reference: Australasian Wood Preservation Committee, Protocols for Assessment of Wood Preservatives, March 2007 Revision, pp. 32). Untreated controls, solvent-treated controls and panels treated with reference preservatives (e.g., CCA) were also included in this field test. Note: All formulations contained the insecticide permethrin at a concentration sufficient to deliver approximately 0.02% m/m active in the treated panels. After approximately three years outdoor exposure in Hawaii, the specimens were rated using a typical 0 to 10 rating system (e.g., Evaluation Standard […], AWPA Book of Standards, 2010, American Wood Protection Association, Birmingham, Ala.), where 7 is the lowest score where the specimen is deemed still to be serviceable.

Coniophora olivacea = experiment: Laboratory fungal bioassay (Example 6), mass loss of treated, leached radiata pine sapwood; assay type: cell-based
Experimental: (§1) The bioassay was carried out in accordance with recognised methods (see, Protocols for the Assessment of Wood Preservatives, Australasian Wood Preservation Committee, March 2007 Revision, Ensis, Clayton).
(§2) Radiata pine sapwood (20×20×10 mm) specimens were treated with various preservative formulations. After drying the specimens were saturated with water and leached in a shaking water-bath at 35° C. for seven days, with daily changes of water. After leaching, the specimens were vacuum oven dried, before being sterilised in readiness for the fungal bioassay. The bioassay was carried out in accordance with standard laboratory techniques, by an independent research provider.
(§3) Mass loss was used to determine the effectiveness of a preservative treatment. […] Decay is deemed to have been prevented if the mass loss is less than 3%.
Some basidiomycete decay fungi are more tolerant to azoles that others. In this bioassay, a selection of brown rot fungi were chosen. One of those chosen, Coniophora olivacea, is relatively resistant to azoles.

Fomitopsis lilacinogilva = experiment: as above; assay type: cell-based
Experimental: as §1, §2, §3
Fomitopsis lilacinogilva is a wood-rotting bracket fungus common in many places of Gondwanaland origin. It is found on logs, stumps, and some outdoor wooden constructions. It forms fans, shelves, pads or crusts, to 100 mm across, is hairy, crusted above, zoned pinkish and brownish. The results against Fomitopsis lilacinogilva were less spectacular. Azole/zinc 1:2 gave 10% mass loss; 1:1 gave 15.9% mass loss; and azoles alone gave 19.9% mass loss versus the control (71.5% mass loss).

[2] = retention 0.1% m/m (as Zn metal)
[3] = retention 0.2% m/m (as Zn metal)
[4] = retention 0.3% m/m (as Zn metal)

In the case of copper naphthenate, the “Comment (decay state of panels)” value ([1]; retention 0.11% m/m Cu, approx. three years outdoor exposure in Hawaii, permethrin approx. 0.02% m/m) is reported as “Heavily decayed” and the “Minimum effective retention to prevent decay, as copper” value ([1]; three year inspection, Hawaii, expressed as copper) is reported as greater than 0.11 % m/m.

For zinc naphthenate [ZnN], the “C. olivacea Mass Loss (%)” value (Coniophora olivacea; [2]) was 50.5%, the “C. olivacea Mass Loss (%)” value (Coniophora olivacea; [3]) was 42.8% and the “C. olivacea Mass Loss (%)” value (Coniophora olivacea; [4]) was 28.4%. For the same substance, the “F. lilacinogilva Mass Loss (%)” value (Fomitopsis lilacinogilva; [2]) was 65.8%, the “F. lilacinogilva Mass Loss (%)” value (Fomitopsis lilacinogilva; [3]) was 60.2% and the “F. lilacinogilva Mass Loss (%)” value (Fomitopsis lilacinogilva; [4]) was 53.5%.
